Laboratory results from patent publication US9526766B2, “Potentiation of antibiotic treatment with a protein-lipid complex” (priority 2012, dated 2016).

Assays:
[1] = test system: NRS 384 Staphylococci; assay: Radioisotope 45Ca2+ transport assay; type: cell-based, Staphylococcus aureus; conditions: ALAFAC addition, Ruthenium Red 30 μM
Procedure: Radioisotope ^45Ca^2+ transport assays. Staphylococcus aureus was grown to log phase, washed three times and resuspended in 1×PBS containing 0.5 mM CaCl2 (CaPBS). No glucose was added in order to minimize the interference created by extrusion of Ca^2+ via ATPase pumps. ^45CaCl2 (PerkinElmer; Waltham, Mass., USA) was added to the cells at a final concentration of 2.5 μCi/mL, followed by inhibitor compound, with each addition given two minutes equilibration time. The untreated baseline sample was measured at this point. The sample was then divided, ALAFAC was added to one of the tubes, and ^45Ca^2+ uptake was measured at various intervals. For each sample, 100 μL was dispensed onto Millipore 0.3 μm PHWP filters (EMD Millipore; Billerica, Mass., USA) presoaked in CaPBS, and immediately washed with 9 mL of CaPBS via syringe filtration through Millipore Swinnex® filter holders. Filters were placed in scintillation vials with 5 mL of scintillation fluid, and CPMs were detected on a Wallac 1409 liquid scintillation counter (Wallac Oy, Turku, Finland). The results were expressed as ΔCPM that was calculated for each sample at the indicated time points as the difference between ALAFAC-treated and untreated samples.

[2] = test system: Streptococcus pneumoniae; assay: Short-time kill assay on planktonic cultures; type: cell-based; conditions: D39, 1 hour, staurosporine 20 μM; for Effect of inhibitor on ALAFAC potentiation of gentamicin and penicillin G: Ruthenium Red 30 μM
Procedure: Methodology: In late logarithmic growth phase, the bacteria were harvested by centrifugation at 12,000×g for 10 minutes and resuspended in phosphate-buffered saline (PBS; […], […], […], pH 7.4). Appropriate dilutions of the bacteria were suspended in PBS and treated with indicated concentrations of ALAFAC and/or antibiotics for various times. The effect on bacterial viability was assessed by plating serial dilutions of bacterial sample on tryptic soy agar plates containing 5% sheep blood (viable counts) and determining viable colony forming units after overnight growth at 37° C.
Short-time kill assays. In late logarithmic growth phase, the bacteria were harvested by centrifugation at 12,000×g for 10 minutes and resuspended in phosphate-buffered saline (PBS; 30 mM Na2HPO4, 10 mM KH2PO4, […], pH 7.4). Appropriate concentrations of the bacteria (around 10^8 colony forming units per ml) were suspended in PBS and treated with indicated concentrations of ALAFAC and/or antibiotics for various times. The effect on bacterial viability was assessed by plating serial dilutions of bacterial sample on tryptic soy agar plates containing 5% sheep blood (viable counts) and determining viable CFUs after overnight growth at 37° C.

[3] = test system: Staphylococcus aureus; assay: MIC by broth microdilution, antibiotics with and without ALAFAC; type: cell-based; conditions: NRS 123; methicillin + ALAFAC; Ruthenium Red 30 μM, Amiloride 1 mM
Procedure: Methodology: Minimal inhibitory concentrations (MICs) were determined in 96-well microtiter plates using the microdilution method according to approved standards of the CLSI except that Todd-Hewitt medium supplemented with 0.5% yeast extract, which yields reproducible MIC results was used as the test medium for S. pneumoniae. For the remaining species Mueller-Hinton medium was used as indicated by the CLSI standard. Each well contained two-fold dilutions of antibiotic, was seeded with a final bacterial concentration of 10^5 CFU/mL, and was incubated for 18 h at 37° C. in a Synergy II microplate reader (Biotek, Winooski, Vt.) where the OD600 was recorded every 5 minutes to monitor bacterial growth. The MIC was defined as the lowest concentration of antimicrobial agent solution at which no increase in OD600 was detected.
In vitro susceptibility tests. Minimal inhibitory concentrations (MICs) were determined in 96-well microtiter plates using the microdilution method according to approved standards of the CLSI as described previously. However, rather than Mueller-Hinton broth, Tryptic soy broth (TSB) was used for susceptibility testing as it is the common media used for Staphylococcal growth, and as it has shown more consistent results for a variety of antimicrobials when tested against Staphylococci. […] A two-fold dilution series of antibiotics in triplicate and in the presence or absence of ALAFAC was prepared in 96 well microtiter plates, and each well was seeded with a final bacterial concentration of 10^5 CFU/mL, and was incubated for 24 h at 37° C. in a Synergy 2 microplate reader (Biotek, Winooski, Vt.) where the Optical Density at 600 nm (OD600) was recorded every 5 minutes to monitor bacterial growth. The MIC was defined as the lowest concentration of antimicrobial agent solution where no increase in OD600 was detected.

[4] = test system: NRS 384 Staphylococci; assay: Intracellular pH measurement (BCECF-AM); type: cell-based, Staphylococcus aureus; conditions: ALAFAC 100 μg/mL (6 μM), RuR 30 μM, Amiloride 1 mM
Text: Intracellular pH measurement. A reported protocol for intracellular pH (pHi) measurement was modified and optimized for S. aureus by testing the effect of various dye concentrations and staining times on the measured fluorescence of S. aureus isolate NRS 384 grown to mid-log phase. Cell samples were subjected to increasing concentrations of the membrane-permeant acetoxymehtyl (AM) ester derivative of the dual-excitation ratiometric pH indicator dye BCECF (2′,7′-bis-(2-carboxyethyl)-5-(and-6)-carboxyfluorescein), for 30 minutes at 30° C. Fluorescence was measured as a ratio of fluorescence at 530 nm with dual wavelength excitation at 490 and 440 nm and calibration curves were established for each independent experiment. After testing a number of loading concentrations we observed that the fluorescence ratios remains generally constant when concentrations above 20 μM was used. Therefore 25 μM BCECF-AM was used for all experiments. The optimized staining time, 30 minutes, was determined using the same criteria and was used for all experiments. After loading, the cells were washed twice in PBS by centrifugation and the resulting pellet was resuspended in PBS to the original volume and ALAFAC and ALAFAC/antibiotic combinations were added. CCCP was added as a positive control. CCCP is a lipophilic weak acid that is soluble in the lipid domain of the membrane in both the protonated and deprotonated form. This allows it to act as a protonophore causing an influx of H^+ into the cytoplasm, dissipating both the electrical potential and the H^+ gradient across the inner membrane. For each experiment calibration was performed where cells were resuspended in high [K^+] buffers at different pH values ranging from 6.5 to 8.0.

[5] = test system: NRS 123 Staphylococci; assay: Membrane potential, DiBAC4(3) fluorescence; type: cell-based, Staphylococcus aureus; conditions: Ruthenium Red, Amiloride
Procedure: Assessing membrane potential. Staphylococci grown to late log phase in TSB were pelleted by centrifugation at 2,400×g for 10 minutes and washed twice by resuspension in PBS. The bacterial pellet was resuspended in PBS to half of the original volume and energized with 50 mM glucose for 15 minutes at 37° C. To measure membrane potential of the staphylococcal membrane, 500 nM DiBAC4(3) (bis-(1,3-dibutylbarbituric acid) trimethine oxonol; Molecular Probes, Eugene, Oreg., USA) were added. […] The plate was then placed immediately into a pre-warmed (37° C.) Synergy 2 Multi-Mode Microplate Reader (BioTek) where fluorescence readings from DiBAC4(3) (485/20 nm excitation, 528/20 nm emission) were taken every minute for one hour. The difference in fluorescence intensity between the untreated control and the ALAFAC-treated sample was calculated for the “no inhibitor” samples and for the “inhibitor” samples using the values after 60 minutes. The fluorescence intensity difference for the “inhibitor” samples was then expressed as fold change of the intensity compared with the ALAFAC alone (“no inhibitor”) sample, providing the degree of depolarization compared to the “ALAFAC alone” sample.

Structure (SMILES): N.N.N.N.N.N.N.N.N.N.N.N.N.N.[Cl-].[Cl-].[Cl-].[Cl-].[Cl-].[Cl-].[O-2].[O-2].[Ru+3].[Ru+3].[Ru+4] [Ruthenium Red]
- Intracellular Ca2+ (45Ca2+ uptake) [1]: almost completely blocked
- Effect of inhibitor on ALAFAC potentiation of gentamicin and penicillin G [2]: completely abolished
- Effect of inhibitor on ALAFAC potentiation of gentamicin and penicillin G ([2]; listed as ruthenium red): significantly blocked
- Effect of inhibitor on ALAFAC-induced death ([2]; lethal ALAFAC (12×MIC), ruthenium red 30 μM): significantly reduced
- Effect of inhibitor on ALAFAC antibiotic potentiation in MIC assay [3]: completely abolished
- Transmembrane proton gradient (intracellular pH) [4]: did not fully inhibit
- Effect of inhibitor on ALAFAC-associated membrane depolarization [5]: completely abolished
